Assay [1] relates to NOMO-1. The assay is described as follows: Anti-proliferation, 24 hr treatment (CellTiter-Glo). The class given is cell-based, human. The settings on record: read-out: Anti-proliferation IC50. The text has this:
(§1) Nomo-1, P31-FUJ, and NB4 were obtained from Dr. Gary Gilliland. MV4, 11 cells were obtained from Dr. Anthony Letai. Hel, K562, THP, U937, TF-1 and K052 cells were purchased from the American Type Culture Collection (ATCC) (Manassas, Va., USA). […] Cell lines were submitted for cell line authentication and were authenticated within 6 months of manuscript preparation through cell line short tandem repeat (STR) profiling (DDC Medical, Fairfield, Ohio and Molecular Diagnostics Laboratory, Dana Farber Cancer Institute). […] PBMCs were generously provided by Dr. Steven Treon and Dr. Guang Yang.
(§2) The CellTiter-Glo® assay (Promega, Madison, Wis.) was used for proliferation studies and carried out according to manufacturer instructions. Cell viability is reported as percentage of control (untreated) cells, and error bars represent the standard error of the mean for each data point.
A general note: ATP-based viability assays read luminescence as a measure of living cells.

Assay [2] relates to K562. The description is as above. The class given is cell-based, human. The settings on record: read-out: Anti-proliferation IC50.
Description: as §1, §2

The subject of assay [3] is P31. The description is as above. The class given is cell-based, human. To be noted: read-out: Anti-proliferation IC50.
Description: as §1, §2

Assay [4] has as its system NB4-luc+. The assay is described as above. Format: cell-based, human. The settings on record: read-out: Anti-proliferation IC50.
Description: as §1, §2

The test system of assay [5] is MOLM14. Described as above. Format: cell-based, human. To be noted: read-out: Anti-proliferation IC50.
Description: as §1, §2

Assay [6] concerns MOLM13-luc+. The assay is described as above. Format: cell-based, human. The settings on record: read-out: Anti-proliferation IC50.
Description: as §1, §2

Assay [7] relates to TF-1. The assay is described as above. The class given is cell-based, human. The settings on record: read-out: Anti-proliferation IC50.
Description: as §1, §2

Assay [8] relates to K052. The description is as above. The class given is cell-based, human. The settings on record: read-out: Anti-proliferation IC50.
Description: as §1, §2

Assay [9] relates to U937. The description is as above. Format: cell-based, human. To be noted: read-out: Anti-proliferation IC50.
Description: as §1, §2

For assay [10], the system named is mutant FLT3-expressing cells. The assay is described as follows: Dynamic BH3 profiling (mitochondrial priming). The class given is cell-based, human. To be noted: cytochrome c release in response to Bim peptide, 14 h; compared to wt or null FLT3-expressing cells. The method, then: To determine drug-induced changes in mitochondrial priming, dynamic BH3 profiling was performed as previously described in Montero et al. (2015) Cell 160:977-989 and Pan et al. (2014) Cancer Discov. 4:362-375. Briefly, 0.4×10^6 cells/well were exposed to drug treatment for 14 hours. At the end of incubation time, cells were washed in PBS, pelleted at 500×g for 5 min, and resuspended in MEB buffer. Fifteen μl of cell suspension was added to each well of 384 well plate containing 15 μl of MEB buffer containing 20 μg/mL digitonin and BH3 peptides at twice their final concentration, and the mixture was incubated for 60 min at 26° C. to allow mitochondrial depolarization. Peptide exposure was then terminated by adding 10 μl 4% formaldehyde in PBS for 15 min, followed by neutralization with N2 buffer (1.7M Tris, 1.25M glycine, pH 9.1) for 10 min. In order to determine cytochrome C levels, anti-cytochrome C clone 6H2.B4 conjugated to Alexa Fluor® 647 (BD Bioscience) was diluted 1:50 in 10× staining buffer (10% BSA, 2% Tween-20 and 0.02% sodium azide in PBS) and 10 μl of this antibody-containing buffer was added to each well for a final dilution of 1:400. Cells were stained overnight at 4° C. in dark and data were acquired on a BD LSRFortessa™ analyzer (BD Biosciences). Priming change (Δ) was calculated by comparing cytochrome C abundance in treated cells to that of DMSO-treated control cells.

Assay [11] deals with USP10 (Homo sapiens, UniProt Q14694). The assay is described as follows: MALDI TOF DUB assay with diubiquitin substrate. Format: biochemical. The settings on record: diubiquitin (K11) as substrate. The method, then: Thirty-one human DUBs were freshly diluted in the reaction buffer (40 mM Tris-HCl, pH 7.6, 5 mM DTT, 0.005% BSA) at different concentrations (see Table 10). […] The enzymes were pre-incubated with the compounds for 30 min at room temperature at 10 μM final concentration. 0.48 μl of di-ubiquitin topoisomers were added to the reaction mixture to initiate the reaction. The reaction was sealed and incubated for 30 min at room temperature and stopped by adding TFA to a final concentration of 2% (v/v).
Sequence of USP10 (Q14694 whole entry): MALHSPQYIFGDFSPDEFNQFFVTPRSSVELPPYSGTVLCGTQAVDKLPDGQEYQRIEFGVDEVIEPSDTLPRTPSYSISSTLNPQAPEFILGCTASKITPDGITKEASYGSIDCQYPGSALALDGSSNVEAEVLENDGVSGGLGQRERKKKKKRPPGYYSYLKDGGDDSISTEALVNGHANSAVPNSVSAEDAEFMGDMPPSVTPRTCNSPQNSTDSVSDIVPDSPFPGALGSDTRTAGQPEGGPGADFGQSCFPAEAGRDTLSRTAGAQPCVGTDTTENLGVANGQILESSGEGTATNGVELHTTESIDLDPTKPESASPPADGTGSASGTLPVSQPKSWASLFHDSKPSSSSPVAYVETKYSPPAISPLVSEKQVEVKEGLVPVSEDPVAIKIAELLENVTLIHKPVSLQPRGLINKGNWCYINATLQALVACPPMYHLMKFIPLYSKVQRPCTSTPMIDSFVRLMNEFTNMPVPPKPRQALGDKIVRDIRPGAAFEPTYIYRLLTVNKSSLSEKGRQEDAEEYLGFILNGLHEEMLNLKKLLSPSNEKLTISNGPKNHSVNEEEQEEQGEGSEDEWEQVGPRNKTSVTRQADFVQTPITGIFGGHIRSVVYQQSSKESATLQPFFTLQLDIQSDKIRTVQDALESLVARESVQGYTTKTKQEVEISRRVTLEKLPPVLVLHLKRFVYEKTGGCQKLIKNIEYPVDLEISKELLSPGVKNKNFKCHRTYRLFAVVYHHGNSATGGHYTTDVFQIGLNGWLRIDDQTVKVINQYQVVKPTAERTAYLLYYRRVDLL
Mass spectrometry data was acquired on an UltrafleXtreme MALDI-TOF mass spectrometer (Bruker Daltonics) with Compass 1.3 control and processing software. The sample carrier was taught before each analysis to optimize and centre laser shooting. […] Samples were analysed in automatic mode (AutoXecute, Bruker Daltonics). […] An amount of 3,500 shots were summed up in “random walk” and with “large” smartbeam laser focus. Spectra were automatically calibrated on the ^15N-Ub m/z and processed using smoothing (Savitzky-Golay algorithm) and baseline subtraction (‘TopHat’) for reproducible peak annotation on non-resolved isotope distributions: one cycle, 0.2 m/z for the width. For area calculation, the complete isotopic distribution was taken into account. […]

The test system of assay [12] is Ba/F3-D835Y cells. Briefly: Immunoblot of FLT3 in Ba/F3-D835Y cells. The class given is cell-based, murine. An excerpt:
FLT3/Flk-2 (C-20) (sc-479) and Ub (P4D1) (mouse, sc-8017) were purchased from Santa Cruz Biotechnology, Inc. (Dallas, Tex.) and used at 1:1000 dilution for immunoblotting. Anti-pTyr (mouse, clone 4G10) was purchased from Upstate Biotechnology (Lake Placid, N.Y.) and was used at 1:1000 dilution. Anti-HAUSP/USP7 antibody (rabbit, ab4080) and anti-ubiquitin antibody (rabbit, ab7780) were purchased from Abcam (Cambridge, Mass.) and used at 1:1000 dilution.
Protein lysate preparation, immunoblotting, and immunoprecipitation were carried out as previously described in Weisberg et al. (2002) Cancer Cell 1:433-443.

[13] abbreviates: 24 hr treatment, NOMO-1 (FLT3 wt or null).
Setting [14] is: 24 hr treatment, K562 (FLT3 wt or null).
The mark [15] stands for this setting: 24 hr treatment, P31 (FLT3 wt or null).
Setting [16] is: 24 hr treatment, NB4-luc+ (FLT3 wt or null).
Where [17] appears, read: 24 hr treatment, MOLM14 (FLT3-ITD).
Where [18] appears, read: 24 hr treatment, MOLM13-luc+ (FLT3-ITD).
[19] abbreviates: 24 hr treatment, TF-1 (FLT3 null).
[20] abbreviates: 24 hr treatment, K052 (FLT3 wt or null).
[21] abbreviates: 24 hr treatment, U937 (FLT3 wt or null).

Each structure is given as a SMILES string. Like-named read-outs stand apart in the source and are kept apart here.

From patent publication US11136409B2, “Compositions and methods for identification, assessment, prevention, and treatment of AML using USP10 biomarkers and modulators” (Dana-Farber Cancer Institute, Inc., priority 2016, dated 2021) come the findings set out here.

Turning to `CCCN(CCC)CCCNC(=O)c1ccc2c(Cl)c3c(nc2c1)CCCC3` [C598-0466], the IC50 in assay [1] (setting [13]) was 8.3 µM; in assay [2] (setting [14]), 13.3 µM; in assay [3] (setting [15]), 13.9 µM; in assay [4] (setting [16]), 10.2 µM; in assay [5] (setting [17]) it was 5.2 µM; in assay [6] (setting [18]) it was 2.9 µM. Further, the IC50 in assay [7] (setting [19]) is 10.7 µM; in [8] (setting [20]), 11.6 µM; in [9] (setting [21]) it was 12.9 µM.

For `O=C(NCCCN1CCN(Cc2ccccc2)CC1)c1ccc2nc3c(c(Cl)c2c1)CCCC3` [C598-0563], the IC50 in assay [1] (setting [13]) was 10.7 µM; in [2] (setting [14]), 15.9 µM; in [3] (setting [15]), 10.6 µM; in [4] (setting [16]), 13.6 µM; in assay [5] (setting [17]), 9.9 µM; in assay [6] (setting [18]), 8.8 µM. The IC50 in assay [7] (setting [19]) is 10 µM; in assay [8] (setting [20]) it was 14.5 µM; in assay [9] (setting [21]), 13.7 µM.

Take `CCN(CCCNC(=O)c1ccc2nc3c(c(Cl)c2c1)CCC3)Cc1ccccc1` [C673-0105]: the “Mitochondrial priming for apoptosis” value in assay [10] was “more strongly”. The IC50 in assay [1] (setting [13]) came to 12.7 µM; in assay [2] (setting [14]), 23.7 µM; in [3] (setting [15]) it was 29 µM; in assay [4] (setting [16]), 24.5 µM; in [5] (setting [17]) it was 10.1 µM; in [6] (setting [18]), 7.9 µM. Besides, the IC50 in assay [7] (setting [19]) came out at 12.5 µM; in assay [8] (setting [20]), 23.5 µM; in assay [9] (setting [21]), 16.2 µM.

As for `CN(CCCNC(=O)c1ccc2nc3c(c(Cl)c2c1)CCCC3)Cc1ccccc1` [HBX19818, reference compound], the “Mitochondrial priming for apoptosis” value in [10] is given as “increased priming”. Moreover, the IC50 was 14 µM in assay [11]; 16.1 µM in assay [1] (Homo sapiens, NOMO-1, 24 h); 18.5 µM in [2] (Homo sapiens, K562, 24 h); 18.2 µM in assay [3] (Homo sapiens, 24 h); 16.4 µM in [4] (Homo sapiens, 24 h); 9.6 µM in [5] (Homo sapiens, MOLM-14, 24 h). Also, the IC50 was 4.4 µM in assay [6] (Homo sapiens, 24 h); 12.8 µM in assay [7] (Homo sapiens, TF-1, 24 h); 16.6 µM in assay [8] (Homo sapiens, K052, 24 h); 20.7 µM in assay [9] (Homo sapiens, U-937, 24 h). In assay [12], the FLT3 protein levels entry is reported as “more modest loss of FLT3 protein”.
